Tested on: MV-4-11 cells
Test: Gene expression microarray analysis (Affymetrix PrimeView) and GSEA
Format: cell-based, human
Set-up: RFU PODN (11730768_x_at) / Fold change /veh PODN (11730768_x_at) / RFU LINC00158 (11744669_a_at) / Fold change /veh LINC00158 (11744669_a_at) / RFU DUSP10 (11751237_a_at) / Fold change /veh DUSP10 (11751237_a_at) / RFU ID3 (11757404_x_at) / Fold change /veh ID3 (11757404_x_at) / RFU PLEKHG5 (11737974_s_at) / Fold change /veh PLEKHG5 (11737974_s_at) / RFU LRRC4B (11730491_at) / Fold change /veh LRRC4B (11730491_at) / RFU GIMAP4 (11747438_a_at) / Fold change /veh GIMAP4 (11747438_a_at) / RFU KRT8 (11758183_x_at) / Fold change /veh KRT8 (11758183_x_at) / RFU CNN1 (11734310_a_at) / Fold change /veh CNN1 (11734310_a_at) / RFU VPS37D (11726825_at) / Fold change /veh VPS37D (11726825_at) / RFU C10orf10 (11716522_x_at) / Fold change /veh C10orf10 (11716522_x_at) / RFU KIR2DL2 /// KIR2DL4 /// KIR2DL5A /// KIR2DL5B /// KIR2DS1 /// KIR2DS2 /// KIR2DS3 /// KIR2DS4 /// KIR3DL3 /// KIR3DL3 /// KIR3DS1 (11738374_at) / Fold change /veh KIR2DL2 /// KIR2DL4 /// KIR2DL5A /// KIR2DL5B /// KIR2DS1 /// KIR2DS2 /// KIR2DS3 /// KIR2DS4 /// KIR3DL3 /// KIR3DL3 /// KIR3DS1 (11738374_at) / RFU C1QL1 (11718748_at) / Fold change /veh C1QL1 (11718748_at) / RFU TMPRSS4 (11747572_a_at) / Fold change /veh TMPRSS4 (11747572_a_at) / RFU HAMP (11756126_x_at) / Fold change /veh HAMP (11756126_x_at) / RFU RNFT2 (11725882_a_at) / Fold change /veh RNFT2 (11725882_a_at) / RFU NR4A2 (11747474_a_at) / Fold change /veh NR4A2 (11747474_a_at) / RFU ABCC12 (11746883_a_at) / Fold change /veh ABCC12 (11746883_a_at) / RFU TMEM136 (11760407_x_at) / Fold change /veh TMEM136 (11760407_x_at) / RFU CLDN22 /// WWC2 (11732394_at) / Fold change /veh CLDN22 /// WWC2 (11732394_at) / RFU HLA-DPB1 (11760878_x_at) / Fold change /veh HLA-DPB1 (11760878_x_at) / RFU SPINT1 (11716480_a_at) / Fold change /veh SPINT1 (11716480_a_at) / RFU GAP43 (11754022_s_at) / Fold change /veh GAP43 (11754022_s_at) / RFU A4GNT (11735810_at) / Fold change /veh A4GNT (11735810_at) / RFU PRB3 (11715151_x_at) / Fold change /veh PRB3 (11715151_x_at) / RFU TUBB4B (11761932_at) / Fold change /veh TUBB4B (11761932_at) / RFU CAPN14 (11732068_a_at) / Fold change /veh CAPN14 (11732068_a_at) / RFU TMCC2 (11721928_a_at) / Fold change /veh TMCC2 (11721928_a_at) / RFU IRGQ (11745062_a_at) / Fold change /veh IRGQ (11745062_a_at) / RFU FAM174B (11720279_a_at) / Fold change /veh FAM174B (11720279_a_at) / RFU TMPRSS4 (11748680_a_at) / Fold change /veh TMPRSS4 (11748680_a_at) / RFU FAM212B (11763350_a_at) / Fold change /veh FAM212B (11763350_a_at) / RFU PLEKHG5 (11743358_a_at) / Fold change /veh PLEKHG5 (11743358_a_at) / RFU ZSCAN30 (11745921_a_at) / Fold change /veh ZSCAN30 (11745921_a_at) / RFU CMKLR1 (11741424_a_at) / Fold change /veh CMKLR1 (11741424_a_at) / RFU LOC101060620 /// MAPK8IP1 (11723275_at) / Fold change /veh LOC101060620 /// MAPK8IP1 (11723275_at) / RFU SPTSSB (11747773_x_at) / Fold change /veh SPTSSB (11747773_x_at) / RFU PRSS12 (11739890_at) / Fold change /veh PRSS12 (11739890_at) / RFU BIN1 (11741810_x_at) / Fold change /veh BIN1 (11741810_x_at) / RFU WNT11 (11732464_a_at) / Fold change /veh WNT11 (11732464_a_at) / RFU C10orf10 (11716521_a_at) / Fold change /veh C10orf10 (11716521_a_at) / RFU C5orf56 (11738089_at) / Fold change /veh C5orf56 (11738089_at) / RFU CYB561 (11721691_x_at) / Fold change /veh CYB561 (11721691_x_at) / RFU ANKRD19P (11752326_a_at) / Fold change /veh ANKRD19P (11752326_a_at) / RFU OR2T12 /// OR2T33 /// OR2T8 (11738714_s_at) / Fold change /veh OR2T12 /// OR2T33 /// OR2T8 (11738714_s_at) / RFU VCAN (11748164_a_at) / Fold change /veh VCAN (11748164_a_at) / RFU JSRP1 (11732532_at) / Fold change /veh JSRP1 (11732532_at) / RFU KRTAP10-11 (11738290_x_at) / Fold change /veh KRTAP10-11 (11738290_x_at) / RFU MYO3A (11730013_a_at) / Fold change /veh MYO3A (11730013_a_at) / RFU EBF3 (11725865_a_at) / Fold change /veh EBF3 (11725865_a_at) / RFU CAMK2N1 (11719241_x_at) / Fold change /veh CAMK2N1 (11719241_x_at) / RFU C5orf56 (11738088_a_at) / Fold change /veh C5orf56 (11738088_a_at) / RFU OLFML3 (11715873_a_at) / Fold change /veh OLFML3 (11715873_a_at) / RFU LOC100653217 /// NTM (11731650_a_at) / Fold change /veh LOC100653217 /// NTM (11731650_a_at) / RFU MAPK11 (11762145_a_at) / Fold change /veh MAPK11 (11762145_a_at) / RFU FIZ1 (11724087_x_at) / Fold change /veh FIZ1 (11724087_x_at) / RFU OASL (11726364_x_at) / Fold change /veh OASL (11726364_x_at) / RFU SOX15 (11748057_x_at) / Fold change /veh SOX15 (11748057_x_at) / RFU CD79A (11719716_a_at) / Fold change /veh CD79A (11719716_a_at) / RFU HIST1H1D (11736915_at) / Fold change /veh HIST1H1D (11736915_at) / RFU CASKIN2 (11723855_a_at) / Fold change /veh CASKIN2 (11723855_a_at) / RFU LOC730098 (11760151_x_at) / Fold change /veh LOC730098 (11760151_x_at) / RFU OR4N2 (11742367_at) / Fold change /veh OR4N2 (11742367_at) / RFU PRRT2 (11749266_a_at) / Fold change /veh PRRT2 (11749266_a_at) / RFU SNX32 (11753110_a_at) / Fold change /veh SNX32 (11753110_a_at) / RFU CDHR5 (11726645_a_at) / Fold change /veh CDHR5 (11726645_a_at) / RFU RCAN1 (11760418_a_at) / Fold change /veh RCAN1 (11760418_a_at) / RFU FAM167A (11723789_a_at) / Fold change /veh FAM167A (11723789_a_at) / RFU FAM26E (11764081_at) / Fold change /veh FAM26E (11764081_at) / RFU ISYNA1 (11749810_s_at) / Fold change /veh ISYNA1 (11749810_s_at) / RFU ACY1 (11761880_at) / Fold change /veh ACY1 (11761880_at) / RFU 11764098_at / Fold change /veh 11764098_at / RFU SAMD14 (11745864_x_at) / Fold change /veh SAMD14 (11745864_x_at) / RFU NPB (11741838_a_at) / Fold change /veh NPB (11741838_a_at) / RFU TMPRSS6 (11731388_a_at) / Fold change /veh TMPRSS6 (11731388_a_at) / RFU KRTAP10-2 (11738614_at) / Fold change /veh KRTAP10-2 (11738614_at) / RFU ARHGAP8 /// PRR5-ARHGAP8 (11727945_x_at) / Fold change /veh ARHGAP8 /// PRR5-ARHGAP8 (11727945_x_at) / RFU KRTAP5-7 /// NADSYN1 (11734609_at) / Fold change /veh KRTAP5-7 /// NADSYN1 (11734609_at) / RFU RASL12 (11751679_a_at) / Fold change /veh RASL12 (11751679_a_at) / RFU CDKN2B (11736163_a_at) / Fold change /veh CDKN2B (11736163_a_at) / RFU PRF1 (11729649_at) / Fold change /veh PRF1 (11729649_at) / RFU, ZNF638 /// ZNF638-IT1 / Fold change vs veh, ZNF638 /// ZNF638-IT1 / RFU, PANK3 / Fold change vs veh, PANK3 / RFU, SH3YL1 / Fold change vs veh, SH3YL1 / RFU, ZEB2 / Fold change vs veh, ZEB2 / RFU, NRIP1 / Fold change vs veh, NRIP1 / RFU, PTTG1IP / Fold change vs veh, PTTG1IP / RFU, CAPN2 / Fold change vs veh, CAPN2 / RFU, MED14 / Fold change vs veh, MED14 / RFU, SNORA58 / Fold change vs veh, SNORA58 / RFU, C1orf63 / Fold change vs veh, C1orf63 / RFU, LRRFIP1 / Fold change vs veh, LRRFIP1 / RFU, NDUFAF7 / Fold change vs veh, NDUFAF7 / RFU, SLC12A2 / Fold change vs veh, SLC12A2 / RFU, IBTK / Fold change vs veh, IBTK / RFU, ESF1 / Fold change vs veh, ESF1 / Fold change vs veh, TMEM50B / RFU, TAOK1 / Fold change vs veh, TAOK1 / RFU, ACBD3 / Fold change vs veh, ACBD3 / RFU, TMA16 / Fold change vs veh, TMA16 / RFU, RWDD3 / Fold change vs veh, RWDD3 / RFU, BCAT1 / Fold change vs veh, BCAT1 / RFU, EDEM3 / Fold change vs veh, EDEM3 / RFU, TMEM33 / Fold change vs veh, TMEM33 / RFU, WDR75 / Fold change vs veh, WDR75 / RFU, AHCTF1 / Fold change vs veh, AHCTF1 / RFU, TFRC / Fold change vs veh, TFRC / RFU, ZDHHC17 / Fold change vs veh, ZDHHC17 / RFU, NOM1 / Fold change vs veh, NOM1 / RFU, ARL8B / Fold change vs veh, ARL8B / RFU, ZBTB11 / Fold change vs veh, ZBTB11 / RFU, TAMM41 / Fold change vs veh, TAMM41 / RFU, KIAA1704 /// LOC100996395 / Fold change vs veh, KIAA1704 /// LOC100996395 / RFU, ING1 / Fold change vs veh, ING1 / RFU, TRMT61B / Fold change vs veh, TRMT61B / RFU, FUBP3 / Fold change vs veh, FUBP3 / RFU, TP53 / Fold change vs veh, TP53 / RFU, TNKS2 / Fold change vs veh, TNKS2 / RFU, ZFP14 / Fold change vs veh, ZFP14 / RFU, ACTR2 / Fold change vs veh, ACTR2 / RFU, PPP3R1 / Fold change vs veh, PPP3R1 / RFU, PIK3R1 / Fold change vs veh, PIK3R1 / RFU, HNRNPA1 / Fold change vs veh, HNRNPA1 / RFU, RNF170 / Fold change vs veh, RNF170 / RFU, ZNF28 / Fold change vs veh, ZNF28 / RFU, RNGTT / Fold change vs veh, RNGTT / RFU, OGT / Fold change vs veh, OGT / RFU, BRD1 / Fold change vs veh, BRD1 / RFU, MARS / Fold change vs veh, MARS / RFU, ZNF655 / Fold change vs veh, ZNF655 / RFU, FAHD1 / Fold change vs veh, FAHD1 / RFU, BDP1 / Fold change vs veh, BDP1 / RFU, LRRCC1 / Fold change vs veh, LRRCC1 / RFU, ARID1A / Fold change vs veh, ARID1A / RFU, ZNF146 / Fold change vs veh, ZNF146 / RFU, ZNF330 / Fold change vs veh, ZNF330 / RFU, GPN3 / Fold change vs veh, GPN3 / RFU, C9orf123 / Fold change vs veh, C9orf123 / RFU, N4BP2L2 / Fold change vs veh, N4BP2L2 / RFU, ARFIP1 / Fold change vs veh, ARFIP1 / RFU, FAM179B / Fold change vs veh, FAM179B / RFU, BCL10 / Fold change vs veh, BCL10 / RFU, UHRF1BP1L / Fold change vs veh, UHRF1BP1L / RFU, BET1 / Fold change vs veh, BET1 / RFU, CNOT2 / Fold change vs veh, CNOT2 / RFU, ZNF268 / Fold change vs veh, ZNF268 / Fold change vs veh, ZNF507 / RFU, DGCR2 / Fold change vs veh, DGCR2 / RFU, WDSUB1 / Fold change vs veh, WDSUB1 / Fold change vs veh, HSP90B1 /// MIR3652 / RFU, ADSS / Fold change vs veh, ADSS / RFU, GK / Fold change vs veh, GK / RFU, ZNF148 / Fold change vs veh, ZNF148 / RFU, TAF9 / Fold change vs veh, TAF9 / RFU, SLC1A5 / Fold change vs veh, SLC1A5 / RFU, SLMO2 / Fold change vs veh, SLMO2 / RFU, ABCC4 / Fold change vs veh, ABCC4 / RFU, LOC101060439 /// RAP1B / Fold change vs veh, LOC101060439 /// RAP1B / RFU, RFX7 / Fold change vs veh, RFX7 / RFU, GTPBP10 / Fold change vs veh, GTPBP10 / RFU, CNEP1R1 / Fold change vs veh, CNEP1R1 / RFU, BIVM-ERCC5 /// ERCC5 / Fold change vs veh, BIVM-ERCC5 /// ERCC5 / RFU, ILF3 / Fold change vs veh, ILF3 / RFU 11762660_at / Fold change /veh 11762660_at / RFU VCAN (11757783_s_at) / Fold change /veh VCAN (11757783_s_at) / RFU DDX43 (11728927_at) / Fold change /veh DDX43 (11728927_at) / RFU KRT8 (11758188_x_at) / Fold change /veh KRT8 (11758188_x_at) / RFU NKD1 (11759106_at) / Fold change /veh NKD1 (11759106_at) / RFU SRD5A1 (11742802_a_at) / Fold change /veh SRD5A1 (11742802_a_at) / RFU TPSAB1 /// TPSB2 (11721975_s_at) / Fold change /veh TPSAB1 /// TPSB2 (11721975_s_at) / RFU GSTM3 (11746129_a_at) / Fold change /veh GSTM3 (11746129_a_at) / RFU IL23R (11737362_x_at) / Fold change /veh IL23R (11737362_x_at) / RFU TMEM51 (11727254_a_at) / Fold change /veh TMEM51 (11727254_a_at) / RFU PIWIL2 (11732686_x_at) / Fold change /veh PIWIL2 (11732686_x_at) / RFU ORM1 (11744905_x_at) / Fold change /veh ORM1 (11744905_x_at) / RFU CCDC152 (11743942_at) / Fold change /veh CCDC152 (11743942_at) / RFU ECM1 (11717891_a_at) / Fold change /veh ECM1 (11717891_a_at) / RFU IL23R (11748794_a_at) / Fold change /veh IL23R (11748794_a_at) / RFU TNFAIP8L3 (11732012_x_at) / Fold change /veh TNFAIP8L3 (11732012_x_at) / RFU MBOAT4 (11741988_at) / Fold change /veh MBOAT4 (11741988_at) / RFU 11764193_at / Fold change /veh 11764193_at / RFU TMEM53 (11763286_at) / Fold change /veh TMEM53 (11763286_at) / RFU MAGEB2 (11727129_at) / Fold change /veh MAGEB2 (11727129_at) / RFU TMEM200A (11744735_a_at) / Fold change /veh TMEM200A (11744735_a_at) / RFU CCDC152 (11751479_a_at) / Fold change /veh CCDC152 (11751479_a_at) / RFU FAM211A (11726209_a_at) / Fold change /veh FAM211A (11726209_a_at) / RFU RGS16 (11746705_a_at) / Fold change /veh RGS16 (11746705_a_at) / RFU VCAN (11755009_s_at) / Fold change /veh VCAN (11755009_s_at) / RFU RHOB (11743442_s_at) / Fold change /veh RHOB (11743442_s_at) / RFU RGS16 (11720943_a_at) / Fold change /veh RGS16 (11720943_a_at) / RFU RGS16 (11720944_at) / Fold change /veh RGS16 (11720944_at) / RFU, VPS4B / Fold change vs veh, VPS4B / RFU, CREB1 / Fold change vs veh, CREB1 / RFU, DNAJC13 / Fold change vs veh, DNAJC13 / RFU, GNAQ / Fold change vs veh, GNAQ / RFU, CDK5R1 / Fold change vs veh, CDK5R1 / RFU, ZRANB3 / Fold change vs veh, ZRANB3 / RFU, CUL4A / Fold change vs veh, CUL4A / RFU, CCNY / Fold change vs veh, CCNY / RFU, UFL1 / Fold change vs veh, UFL1 / RFU, COG3 / Fold change vs veh, COG3 / RFU, DIAPH2 / Fold change vs veh, DIAPH2 / RFU, SKA2 / Fold change vs veh, SKA2 / RFU, AFF3 / Fold change vs veh, AFF3 / RFU, LMF1 / Fold change vs veh, LMF1 / RFU, IPO11 / Fold change vs veh, IPO11 / RFU, DFFB / Fold change vs veh, DFFB / RFU, FOXP1 / Fold change vs veh, FOXP1 / RFU, CARD8 / Fold change vs veh, CARD8 / RFU, STRN3 / Fold change vs veh, STRN3 / RFU, ADK / Fold change vs veh, ADK / RFU, RASSF2 / Fold change vs veh, RASSF2 / RFU, WIPF1 / Fold change vs veh, WIPF1 / RFU, LARP1B / Fold change vs veh, LARP1B / RFU, RASA1 / Fold change vs veh, RASA1 / RFU, RB1 / Fold change vs veh, RB1 / RFU, PPFIA1 / Fold change vs veh, PPFIA1 / RFU, MAT2A / Fold change vs veh, MAT2A / RFU, CCT5 / Fold change vs veh, CCT5 / RFU, WDR92 / Fold change vs veh, WDR92 / RFU, CUX1 / Fold change vs veh, CUX1 / RFU, TTC7A / Fold change vs veh, TTC7A / RFU, TMEM135 / Fold change vs veh, TMEM135 / RFU, DEPTOR / Fold change vs veh, DEPTOR / RFU, CPM / Fold change vs veh, CPM / RFU, DNAJB6 / Fold change vs veh, DNAJB6 / RFU, CACNA2D3 / Fold change vs veh, CACNA2D3 / RFU, DTX4 / Fold change vs veh, DTX4 / RFU, TFCP2 / Fold change vs veh, TFCP2 / RFU, GMCL1 /// GMCL1P1 / Fold change vs veh, GMCL1 /// GMCL1P1 / RFU, AEBP2 / Fold change vs veh, AEBP2 / RFU, SNHG1 /// SNORD22 /// SNORD25 /// SNORD26 /// SNORD27 /// SNORD28 /// SNORD29 /// SNORD31 / Fold change vs veh, SNHG1 /// SNORD22 /// SNORD25 /// SNORD26 /// SNORD27 /// SNORD28 /// SNORD29 /// SNORD31 / Fold change (Aza/veh), C12orf56 (ProbeSet 11735607_a_at) / Fold change (ACY-1035/veh), C12orf56 (ProbeSet 11735607_a_at) / Fold change (Aza/veh), FGFR1OP (ProbeSet 11751329_s_at) / Fold change (ACY-1035/veh), FGFR1OP (ProbeSet 11751329_s_at) / Fold change (Aza/veh), VPS36 (ProbeSet 11739960_a_at) / Fold change (ACY-1035/veh), VPS36 (ProbeSet 11739960_a_at) / RFU SYPL1 (11715823_x_at) / Fold change /veh SYPL1 (11715823_x_at) / RFU IGFBP7 (11715501_s_at) / Fold change /veh IGFBP7 (11715501_s_at) / RFU REEP3 (11722064_at) / Fold change /veh REEP3 (11722064_at) / RFU IGLL1 (11728026_x_at) / Fold change /veh IGLL1 (11728026_x_at): dose or concentration left out as unconfirmed
Details: MV-4-11 cells, 48 hours

SMILES: Nc1ccc(-c2cccs2)cc1NC(=O)c1ccc2c(c1)cc(C1CC1)n2CCN1CCOCC1 [ACY-1035]
- RFU CASKIN2 (11723855_a_at): 29.44 RFU
